Results published in patent publication US7361659B2, “Pyrrazolo-pyrimidine derivatives” (Hoffmann-La Roche Inc., priority 2005, dated 2008).

melting point [°C]	Structure (SMILES)
300	Cc1nc(NC(=O)c2cnn3c(C(F)(F)F)cc(-c4ccc(C(F)(F)F)cc4)nc23)sc1S(=O)(=O)N1CCC(O)C1 (racemic) [Example 76, 7-Trifluoromethyl-5-(4-trifluoromethyl-phenyl)-pyrazolo[1,5-a]pyrimidine-3-carboxylic acid [(RS)-5-(3-hydroxy-pyrrolidine-1-sulfonyl)-4-methyl-thiazol-2-yl]-amide]
270	O=C(Nc1cc(S(=O)(=O)N2CCC(O)C2)sc1Cl)c1cnn2c(C(F)(F)F)cc(-c3ccc(C(F)(F)F)cc3)nc12 (racemic) [Example 67, 7-Trifluoromethyl-5-(4-trifluoromethyl-phenyl)-pyrazolo[1,5-a]pyrimidine-3-carboxylic acid [(RS)-2-chloro-5-(3-hydroxy-pyrrolidine-1-sulfonyl)-thiophen-3-yl]-amide]
274	O=C(Nc1cc(S(=O)(=O)N2CCC(O)C2)sc1Cl)c1cnn2c(C(F)F)cc(-c3ccc(C(F)(F)F)cc3)nc12 (racemic) [Example 66, 7-Difluoromethyl-5-(4-trifluoromethyl-phenyl)-pyrazolo[1,5-a]pyrimidine-3-carboxylic acid [(RS)-2-chloro-5-(3-hydroxy-pyrrolidine-1-sulfonyl)-thiophen-3-yl]-amide]
301	CN1CCN(S(=O)(=O)c2cc(NC(=O)c3cnn4c(C(F)(F)F)cc(-c5ccc(C(F)(F)F)cc5)nc34)c(Cl)s2)CC1 [Example 74, 7-Trifluoromethyl-5-(4-trifluoromethyl-phenyl)-pyrazolo[1,5-a]pyrimidine-3-carboxylic acid [2-chloro-5-(4-methyl-piperazine-1-sulfonyl)-thiophen-3-yl]-amide]
231	CN(CCO)S(=O)(=O)c1cc(NC(=O)c2cnn3c(C(F)F)cc(-c4ccc(C(F)(F)F)cc4)nc23)c(Cl)s1 [Example 72, 7-Difluoromethyl-5-(4-trifluoromethyl-phenyl)-pyrazolo[1,5-a]pyrimidine-3-carboxylic acid {2-chloro-5-[(2-hydroxy-ethyl)-methyl-sulfamoyl]-thiophen-3-yl}-amide]
150	NCCNS(=O)(=O)c1cc(NC(=O)c2cnn3c(C(F)F)cc(-c4ccc(C(F)(F)F)cc4)nc23)c(Cl)s1 [Example 65, 7-Difluoromethyl-5-(4-trifluoromethyl-phenyl)-pyrazolo[1,5-a]pyrimidine-3-carboxylic acid [5-(2-amino-ethylsulfamoyl)-2-chloro-thiophen-3-yl]-amide]
215	Cc1nc(NC(=O)c2cnn3c(C(F)(F)F)cc(-c4ccc(C(F)(F)F)cc4)nc23)sc1S(=O)(=O)NC(CO)CO [Example 64, 7-Trifluoromethyl-5-(4-trifluoromethyl-phenyl)-pyrazolo[1,5-a]pyrimidine-3-carboxylic acid [5-(2-hydroxy-1-hydroxymethyl-ethylsulfamoyl)-4-methyl-thiazol-2-yl]-amide]
269	Cc1nc(NC(=O)c2cnn3c(C(F)F)cc(-c4ccc(C(F)(F)F)cc4)nc23)sc1S(=O)(=O)N1CCN(C)CC1 [Example 68, 7-Difluoromethyl-5-(4-trifluoromethyl-phenyl)-pyrazolo[1,5-a]pyrimidine-3-carboxylic acid [4-methyl-5-(4-methyl-piperazine-1-sulfonyl)-thiazol-2-yl]-amide]
216	Cc1nc(NC(=O)c2cnn3c(C(F)F)cc(-c4ccc(C(F)(F)F)cc4)nc23)sc1S(=O)(=O)N(C)CCO [Example 70, 7-Difluoromethyl-5-(4-trifluoromethyl-phenyl)-pyrazolo[1,5-a]pyrimidine-3-carboxylic acid {5-[(2-hydroxy-ethyl)-methyl-sulfamoyl]-4-methyl-thiazol-2-yl}-amide]

Continued, compound first:

Structure (SMILES)	melting point [°C]
CC(C)(CO)NS(=O)(=O)c1cc(NC(=O)c2cnn3c(C(F)(F)F)cc(-c4ccc(Cl)cc4)nc23)c(Cl)s1 [Example 12, 5-(4-Chloro-phenyl)-7-trifluoromethyl-pyrazolo[1,5-a]pyrimidine-3-carboxylic acid [2-chloro-5-(2-hydroxy-1,1-dimethyl-ethylsulfamoyl)-thiophen-3-yl]-amide]	272
Cc1nc(NC(=O)c2cnn3c(C(F)(F)F)cc(-c4ccc(C(F)(F)F)cc4)nc23)sc1S(=O)(=O)NC(C)(CO)CO [Example 42, 7-Trifluoromethyl-5-(4-trifluoromethyl-phenyl)-pyrazolo[1,5-a]pyrimidine-3-carboxylic acid [5-(2-hydroxy-1-hydroxymethyl-1-methyl-ethylsulfamoyl)-4-methyl-thiazol-2-yl]-amide]	250
CCOc1cc(-c2cc(C(F)(F)F)n3ncc(C(=O)Nc4nc(C)c(S(N)(=O)=O)s4)c3n2)ccc1C(F)(F)F [Example 20, 5-(3-Ethoxy-4-trifluoromethyl-phenyl)-7-trifluoromethyl-pyrazolo[1,5-a]pyrimidine-3-carboxylic acid (4-methyl-5-sulfamoyl-thiazol-2-yl)-amide]	300
O=C(Nc1cc(S(=O)(=O)NCCO)sc1Cl)c1cnn2c(C(F)(F)F)cc(-c3ccc(C(F)(F)F)cc3)nc12 [Example 36, 7-Trifluoromethyl-5-(4-trifluoromethyl-phenyl)-pyrazolo[1,5-a]pyrimidine-3-carboxylic acid [2-chloro-5-(2-hydroxy-ethylsulfamoyl)-thiophen-3-yl]-amide]	191
Cc1nc(NC(=O)c2cnn3c(C(F)(F)F)cc(-c4ccc(C(F)(F)F)cc4)nc23)sc1S(=O)(=O)NCCN(C)C [Example 58, 7-Trifluoromethyl-5-(4-trifluoromethyl-phenyl)-pyrazolo[1,5-a]pyrimidine-3-carboxylic acid [5-(2-dimethylamino-ethylsulfamoyl)-4-methyl-thiazol-2-yl]-amide]	235
CC(C)(CO)NS(=O)(=O)c1cc(NC(=O)c2cnn3c(C4CC4)cc(-c4ccc(Cl)cc4)nc23)c(Cl)s1 [Example 61, 5-(4-Chloro-phenyl)-7-cyclopropyl-pyrazolo[1,5-a]pyrimidine-3-carboxylic acid [2-chloro-5-(2-hydroxy-1,1-dimethyl-ethylsulfamoyl)-thiophen-3-yl]-amide]	238 to 241
Cc1cc(-c2cc(C(F)(F)F)n3ncc(C(=O)Nc4cc(S(=O)(=O)NC(C)(C)CO)sc4Cl)c3n2)ccc1C(F)(F)F [Example 16, 5-(3-Methyl-4-trifluoromethyl-phenyl)-7-trifluoromethyl-pyrazolo[1,5-a]pyrimidine-3-carboxylic acid [2-chloro-5-(2-hydroxy-1,1-dimethyl-ethylsulfamoyl)-thiophen-3-yl]-amide]	207
Cc1sc(S(=O)(=O)NC(C)(C)CO)cc1NC(=O)c1cnn2c(C(F)(F)F)cc(-c3ccc(C(F)(F)F)cc3)nc12 [Example 49, 7-Trifluoromethyl-5-(4-trifluoromethyl-phenyl)-pyrazolo[1,5-a]pyrimidine-3-carboxylic acid [5-(2-hydroxy-1,1-dimethyl-ethylsulfamoyl)-2-methyl-thiophen-3-yl]-amide]	225
Cc1nc(NC(=O)c2cnn3c(C(F)(F)F)cc(-c4ccc(C(F)(F)F)c(OCC(F)(F)F)c4)nc23)sc1S(=O)(=O)NC(C)(C)CO [Example 32, 5-[3-(2,2,2-Trifluoro-ethoxy)-4-trifluoromethyl-phenyl]-7-trifluoromethyl-pyrazolo[1,5-a]pyrimidine-3-carboxylic acid [5-(2-hydroxy-1,1-dimethyl-ethylsulfamoyl)-4-methyl-thiazol-2-yl]-amide]	275
CCOc1cc(-c2cc(C(F)(F)F)n3ncc(C(=O)Nc4cc(S(N)(=O)=O)sc4Cl)c3n2)ccc1C(F)(F)F [Example 10, 5-(3-Ethoxy-4-trifluoromethyl-phenyl)-7-trifluoromethyl-pyrazolo[1,5-a]pyrimidine-3-carboxylic acid (2-chloro-5-sulfamoyl-thiophen-3-yl)-amide]	281
Cc1nc(NC(=O)c2cnn3c(C(F)(F)F)cc(-c4ccc(Cl)c(Cl)c4)nc23)sc1S(N)(=O)=O [Example 26, 5-(3,4-Dichloro-phenyl)-7-trifluoromethyl-pyrazolo[1,5-a]pyrimidine-3-carboxylic acid (4-methyl-5-sulfamoyl-thiazol-2-yl)-amide]	307
CCOc1cc(-c2cc(C(F)(F)F)n3ncc(C(=O)Nc4cc(S(=O)(=O)NCCO)sc4Cl)c3n2)ccc1C(F)(F)F [Example 56, 5-(3-Ethoxy-4-trifluoromethyl-phenyl)-7-trifluoromethyl-pyrazolo[1,5-a]pyrimidine-3-carboxylic acid [2-chloro-5-(2-hydroxy-ethylsulfamoyl)-thiophen-3-yl]-amide]	250
Cc1nc(NC(=O)c2cnn3c(C(F)(F)F)cc(-c4ccc(Cl)c(Cl)c4)nc23)sc1S(=O)(=O)NC(C)(C)CO [Example 31, 5-(3,4-Dichloro-phenyl)-7-trifluoromethyl-pyrazolo[1,5-a]pyrimidine-3-carboxylic acid [5-(2-hydroxy-1,1-dimethyl-ethylsulfamoyl)-4-methyl-thiazol-2-yl]-amide]	265
Cc1nc(NC(=O)c2cnn3c(C(F)F)cc(-c4ccc(C(F)(F)F)cc4)nc23)sc1S(=O)(=O)NC(CO)CO [Example 63, 7-Difluoromethyl-5-(4-trifluoromethyl-phenyl)-pyrazolo[1,5-a]pyrimidine-3-carboxylic acid [5-(2-hydroxy-1-hydroxymethyl-ethylsulfamoyl)-4-methyl-thiazol-2-yl]-amide]	217
CC(C)(CO)NS(=O)(=O)c1cc(NC(=O)c2cnn3c(C(F)(F)F)cc(-c4ccc(C(F)(F)F)c(OCC(F)(F)F)c4)nc23)c(Cl)s1 [Example 17, 5-[3-(2,2,2-Trifluoro-ethoxy)-4-trifluoromethyl-phenyl]-7-trifluoromethyl-pyrazolo[1,5-a]pyrimidine-3-carboxylic acid [2-chloro-5-(2-hydroxy-1,1-dimethyl-ethylsulfamoyl)-thiophen-3-yl]-amide]	264
Cc1nc(NC(=O)c2cnn3c(C(F)F)cc(-c4ccc(C(F)(F)F)cc4)nc23)sc1S(=O)(=O)NC(C)(CO)CO [Example 43, 7-Difluoromethyl-5-(4-trifluoromethyl-phenyl)-pyrazolo[1,5-a]pyrimidine-3-carboxylic acid [5-(2-hydroxy-1-hydroxymethyl-1-methyl-ethylsulfamoyl)-4-methyl-thiazol-2-yl]-amide]	248
